{"source": "patent US8618178B2", "about": "“Method and substances for treating T-cell mediated autoimmune diseases” (Eberhard-Karls-Universitaet Tuebingen Universitaetsklinikum, priority 2006, dated 2013)", "note": "Entries after “also recorded” stand apart in the source; their conditions may differ. Counter-ions that a name gives are not always drawn."}
{"tested_on": "BMDC", "experiment": "Measurement of reactive oxygen species (ROS) in DC with dichlorofluorescein, flow cytometry", "type": "cell-based, mouse", "conditions": "dichlorofluorescein, flow cytometry", "protocol": "For the measurement of reactive oxygen species (ROS) in DC and APC, the fluorescent dye 2′,7′ dichlorofluorescein (H2 DCFDA, Molecular Probes, Eugene, USA) was used. 5×10^5 DC were preincubated in 1 ml of RPMI medium (without mercaptoethanol) for 60 mins at 37° C. in the incubator with 1% DMSO or 10 μg/ml DMF+/−NAC (1 mM) or GSX (1 mM). After this preincubation, 1 μM/ml H2 DCFDA was added and the cells incubated for a further 30 mins at 37° C. Within one hour, the fluorescence produced was detected using flow cytometry (FL1).\n(§1) As antigen presenting cells (APC), T cell depleted spleen cells from syngenic mice were used. Dendritic cells (DC) which were obtained from bone marrow (BMDC) and cultured with GM-CSF were used for the relevant experiments on day 7 of culturing. For the experiment, in each case an equal number of APC were cultured either with the medium alone, with L-BSO (C8H18N2O3S, 0.5 mM), dimethyl sulfoxide DMSO(C2H6OS), dimethyl fumarate DMF (C6H8O4, dissolved in DMSO, 70 μM), or calcium monomethyl fumarate (MMF; CaC10H10O8, 200 μM). All substances except for MMF (Fumapharm) were purchased from Sigma-Aldrich. At the respective stated times (see below) the cells were either analyzed directly for their GSH content, used for T cell stimulation or stimulated for […] with Escherichia coli lipopolysaccharides 055.B5 (Sigma-Aldrich) or CpG-DNA 1668 (MWG Biotech) and IL-4 (Stratmann). In order to raise the GSH level again, 1 mM GSH-OEt (C12H21N3O6S; Sigma-Aldrich) or 1 mM NAC (Sigma-Aldrich) was added.\nFor testing the potential of pharmaceutical substances to induce the ROS, the following procedure was developed: for the measurement of reactive oxygen species (ROS) in cells, the fluorescent dye 2′,7′ dichlorofluorescein (H2 DCFDA) is used. The absorption spectrum of the substance is 492-495 nm and the emission spectrum lies in the range between 517-527 nm. On induction of cell stress, e.g., by the administration of ROS-causing reagents, oxidation of the H2 DCFDA to DCFDA+H2 occurs. The fluorescence arising as a result can be detected using flow cytometry (FL1)."}
{"compound": "COC(=O)/C=C/C(=O)OC", "note": "[DMF, dimethyl fumarate]", "intracellular ROS in DC": "rise in ROS"}
{"compound": "CCCCS(=N)(=O)CCC(N)C(=O)O", "note": "[L-BSO, L-buthionine sulfoximine]", "intracellular ROS in DC": "rise in intracellular ROS"}
{"compound": "COC(=O)/C=C/C(=O)[O-].[Ca+]", "note": "[MMF, calcium monomethyl fumarate]", "intracellular ROS in DC": "induces ROS"}
{"tested_on": "DC", "experiment": "Colorimetric determination of cellular GSH content of DC", "type": "cell-based, mouse", "conditions": "L-BSO 0.5 mM, DMF 70 μM, MMF 200 μM", "protocol": "Cellular GSH and GSSG were determined in micro-titer plate assays using colorimetric methods. The cellular GHS content is determined as a percentage of the GSH levels in freshly prepared controls or as pmol 10^−6 cells. GSSG was not detectable.\nas §1, with “In order to raise the GSH level again, 1 mM GSH-OEt (C12H21N3O6S; Sigma-Aldrich) or 1 mM NAC (Sigma-Aldrich) was added.” left out\nFor the testing of the potential of pharmaceutical substances to lower the glutathione content of cells, the following procedure was carried out: cells (antigen-presenting cells or dendritic cells) are incubated with different concentrations of the given pharmaceutical substance to be tested. Then, after an incubation time of 1 hr, 2 hrs, 24 hrs or 48 hrs, the glutathione content of the cells is determined in comparison to control cells. […]\nThe samples and the GSH standard were diluted in a microtiter plate and the assay reaction started by addition of a reaction mix which contains glutathione reductase. […] The rise in the extinction is measured at 405 nm at 30 sec intervals over 10 mins with a microtiter plate reader. The glutathione content was determined using a calibration curve. […] The protein content was determined by the method of Lowry (see for example, Dringen, et al., “Supply by Astrocytes of CysGly as Precursor for neuronal Glutathione”, J. Neurosci 19:562-569). […]"}
{"compound": "COC(=O)/C=C/C(=O)OC", "note": "[DMF, dimethyl fumarate]", "intracellular GSH content of DC": "depletes the intracellular glutathione level; also recorded: marked decrease"}
{"compound": "CCCCS(=N)(=O)CCC(N)C(=O)O", "note": "[L-BSO, L-buthionine sulfoximine]", "intracellular GSH content of DC": "depletes the intracellular glutathione level; also recorded: marked decrease"}
{"compound": "COC(=O)/C=C/C(=O)[O-].[Ca+]", "note": "[MMF, calcium monomethyl fumarate]", "intracellular GSH content of DC": "depletes the intracellular glutathione level; also recorded: marked decrease"}
